Assay results reported in PubChem BioAssay (NCI).
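How tested: cells in 96-well plates exposed to compound for 48 hours at five concentrations. TGI: concentration producing complete growth inhibition.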

What was measured:
Experiment in all cases: DTP human tumour cell line panel, 48 h
786-0 renal = test system: 786-0 renal
A549 NSCLC = test system: A549 NSCLC
CAKI-1 renal = test system: CAKI-1 renal
CCRF-CEM leukemia = test system: CCRF-CEM leukemia
COLO 205 colon = test system: COLO 205 colon
HCT-15 colon = test system: HCT-15 colon
HS 578T breast = test system: HS 578T breast
K-562 leukemia = test system: K-562 leukemia
MCF7 breast = test system: MCF7 breast
MDA-MB-435 = test system: MDA-MB-435
NCI-H226 lung = test system: NCI-H226 lung
NCI-H460 lung = test system: NCI-H460 lung
RXF 393 renal = test system: RXF 393 renal
SNB-75 CNS = test system: SNB-75 CNS
TK-10 renal = test system: TK-10 renal
UACC-257 melanoma = test system: UACC-257 melanoma
UO-31 renal = test system: UO-31 renal
T-47D breast = test system: T-47D breast
SR leukemia = test system: SR leukemia

Row | Structure (SMILES) | TGI (786-0 renal) [µM] | TGI (A549 NSCLC) [µM] | TGI (CAKI-1 renal) [µM] | TGI (CCRF-CEM leukemia) [µM] | TGI (COLO 205 colon) [µM] | TGI (HCT-15 colon) [µM] | TGI (HS 578T breast) [µM] | TGI (K-562 leukemia) [µM] | TGI (MCF7 breast) [µM] | TGI (MDA-MB-435) [µM] | TGI (NCI-H226 lung) [µM] | TGI (NCI-H460 lung) [µM] | TGI (RXF 393 renal) [µM] | TGI (SNB-75 CNS) [µM] | TGI (TK-10 renal) [µM] | TGI (UACC-257 melanoma) [µM] | TGI (UO-31 renal) [µM] | TGI (T-47D breast) [µM] | TGI (SR leukemia) [µM]
1 | CC[N+](CC)(CCNCC(N)=O)CC(N)=O | > 10 | > 10 | > 10 | > 10 | > 10 | > 10 | > 10 | > 10 | > 10 | > 10 | > 10 | > 10 | > 10 | > 10 | > 10 | > 10 | > 10 | – | –
2 | CC(=O)Nc1cc(C(=O)Nc2cc(C(=O)N3CC(CCl)c4c3cc(N)c3ccccc43)nn2C)nn1C (stereo unspecified) | 0.332 | 2.85 | 0.525 | 0.0491 | – | 3.22 | 1.55 | 0.823 | > 66.5 | 0.281 | – | 0.13 | 0.226 | 0.0775 | > 100 | 2.09 | 1.35 | 0.0931 | –
3 | CNn1c(-c2ccccc2)n[nH]c1=O | > 100 | > 100 | > 100 | > 100 | > 100 | > 100 | > 100 | > 100 | > 100 | > 100 | > 100 | > 100 | – | > 100 | > 100 | > 100 | > 100 | > 100 | > 100
4 | O=[N+]([O-])c1ccccc1S(=O)(=O)c1cc(Cl)cc2c1NCCC2 | > 100 | > 100 | > 100 | > 100 | > 100 | > 100 | > 100 | > 100 | > 100 | > 100 | > 100 | > 100 | > 100 | > 100 | > 100 | 96.7 | > 100 | – | > 100
5 | CN1C(=O)N/C(=C\c2ccc(S(=O)(=O)NN)cc2)C1=O | > 100 | > 100 | > 100 | > 100 | > 100 | > 100 | > 100 | > 100 | > 100 | > 100 | > 100 | – | > 100 | > 100 | > 100 | > 100 | > 100 | > 100 | –
6 | Cc1cc(C)c(S(=O)(=O)N2CCCN(S(=O)(=O)c3c(C)cc(C)cc3C)OCCCON(S(=O)(=O)c3c(C)cc(C)cc3C)CCCN(S(=O)(=O)c3c(C)cc(C)cc3C)OCCCO2)c(C)c1 | > 100 | > 100 | > 100 | > 100 | > 100 | > 100 | > 100 | > 100 | > 100 | > 100 | > 100 | > 100 | > 100 | > 100 | > 100 | > 100 | > 100 | – | > 100
7 | Cc1cc(N(CCC#N)CCC#N)ccc1/C(N=Nc1ccc([N+](=O)[O-])cc1)=N\NC(=O)c1cc(Cl)ccc1C(=O)c1ccccc1 | 52.7 | > 100 | 62.5 | 12.5 | 40.6 | 37.2 | 68 | > 100 | 26.1 | > 100 | 34.1 | 43.2 | 57.9 | > 100 | > 100 | > 100 | 60.5 | 50.3 | –
8 | CC(C)C1OC23CCCCC2C(C#N)(C#N)C1(C#N)C(=N)O3 (stereo unspecified) | 34.4 | > 100 | 22.4 | > 100 | 33.5 | 23.5 | 42.3 | > 100 | 36.6 | 80.6 | > 100 | 32 | 46.4 | > 100 | 48.4 | 45.9 | > 100 | 71.7 | –
9 | O=C(NCCCCCCNC(=O)c1cccc2ccccc12)Nc1cccc2ccccc12 | > 100 | > 100 | > 100 | > 100 | > 100 | > 100 | > 100 | > 100 | > 100 | > 100 | – | > 100 | > 100 | > 100 | > 100 | > 100 | > 100 | > 100 | –
10 | O=C(CC(=O)Nc1cccc(C(=O)O)c1)Nc1cccc(C(=O)O)c1 | > 100 | > 100 | > 100 | > 100 | > 100 | > 100 | > 100 | > 100 | > 100 | > 100 | > 100 | > 100 | – | – | > 100 | > 100 | > 100 | > 100 | –
11 | NC(=O)C(N)Cc1ccc(O)cn1 (stereo unspecified) | > 100 | > 100 | > 100 | > 100 | > 100 | > 100 | > 100 | > 100 | > 100 | > 100 | > 100 | > 100 | > 100 | > 100 | > 100 | > 100 | > 100 | – | > 100
12 | O=C1OC[C@@H]2Cc3cc4c(cc3[C@H](c3ccc5c(c3)OCO5)[C@@H]12)OCO4 | > 25 | > 25 | > 25 | > 25 | > 25 | > 25 | – | > 25 | > 25 | > 25 | – | > 25 | – | – | > 25 | > 25 | > 25 | – | > 25
13 | CC(C)(Cc1ccccc1)NC1=NCCO1 | > 100 | > 100 | > 100 | > 100 | > 100 | > 100 | > 100 | > 100 | > 100 | > 100 | > 100 | > 100 | > 100 | > 100 | > 100 | > 100 | > 100 | – | > 100
14 | COc1cc(Nc2cnc3cc(F)c(F)cc3n2)cc(OC)c1OC | > 100 | > 100 | > 100 | > 100 | > 100 | > 100 | > 100 | – | > 100 | > 100 | > 100 | > 100 | > 100 | > 100 | > 100 | > 100 | > 100 | > 100 | –
15 | CN(c1ccc(Cl)cc1)S(=O)(=O)c1ccc([N+](=O)[O-])cc1 | > 100 | > 100 | > 100 | > 100 | > 100 | > 100 | > 100 | > 100 | > 100 | > 100 | > 100 | > 100 | > 100 | > 100 | > 100 | > 100 | > 100 | > 100 | –
16 | NC(N)=NCCN=C(N)N | > 100 | > 100 | > 100 | > 100 | > 100 | > 100 | > 100 | > 100 | > 100 | > 100 | – | > 100 | > 100 | > 100 | > 100 | > 100 | > 100 | > 100 | –
17 | O=C(O)c1n[nH]nc1Cl | > 100 | > 100 | – | > 100 | > 100 | > 100 | > 100 | > 100 | > 100 | > 100 | > 100 | > 100 | > 100 | > 100 | > 100 | > 100 | > 100 | > 100 | –
18 | CC(=O)n1nc(-c2ccccc2)n(/N=C/c2ccc([N+](=O)[O-])cc2)c1=O | > 100 | > 100 | > 100 | > 100 | > 100 | > 100 | – | > 100 | – | > 100 | > 100 | > 100 | > 100 | > 100 | > 100 | > 100 | > 100 | > 100 | > 100
19 | CS(=O)(=O)Nc1ccc(N2Cc3cnc4ccc5[nH]ccc2c5c34)cc1 | 40.3 | > 100 | > 100 | > 100 | 32.2 | > 100 | > 100 | 38.7 | > 100 | 31.5 | 42.2 | 46.2 | – | – | 89.1 | 31.8 | > 100 | 20.5 | –
20 | Cc1ccc(/C=N/n2c(=O)[nH]c3ccccc3c2=O)cc1 | > 100 | > 100 | > 100 | > 100 | > 100 | > 100 | > 100 | > 100 | > 100 | > 100 | > 100 | > 100 | – | – | > 100 | > 100 | > 100 | > 100 | > 100
21 | CC1CC(N)=Nc2ccccc2N1 (stereo unspecified) | > 100 | > 100 | > 100 | > 100 | > 100 | > 100 | > 100 | > 100 | – | > 100 | > 100 | – | > 100 | > 100 | > 100 | > 100 | > 100 | – | –
22 | N#C/C(C(=O)Nc1ccccc1)=C(/N)N1CCOCC1 | > 100 | > 100 | > 100 | > 100 | > 100 | > 100 | – | > 100 | > 100 | > 100 | > 100 | > 100 | – | > 100 | – | > 100 | > 100 | > 100 | > 100
23 | CN(c1ccc(Cl)cc1)S(=O)(=O)c1cccc([N+](=O)[O-])c1 | > 100 | > 100 | > 100 | > 100 | > 100 | > 100 | > 100 | > 100 | > 100 | > 100 | > 100 | > 100 | > 100 | > 100 | > 100 | > 100 | > 100 | – | > 100
24 | CCC(C)(C)/C(CC(O)(C(F)(F)F)C(F)(F)F)=N\O | > 100 | > 100 | > 100 | > 100 | > 100 | > 100 | > 100 | > 100 | – | > 100 | > 100 | > 100 | > 100 | > 100 | > 100 | – | > 100 | > 100 | > 100
25 | O=S(=O)(c1ccccc1)n1c2cc3cccnc3nc2c2cccnc21 | > 100 | > 100 | > 100 | > 100 | > 100 | > 100 | > 100 | 55.3 | > 100 | 60 | > 100 | > 100 | 90.9 | > 100 | > 100 | > 100 | > 100 | – | 30.4
26 | S=C(NCc1ccccc1)c1nc[nH]c1C(=S)NCc1ccccc1 | 18.8 | 15.1 | 18.7 | 12.1 | 12.9 | 33.6 | – | 29.7 | – | 19.6 | 8.1 | 18.7 | 24.9 | 19.5 | 23.9 | 23.4 | – | 17.4 | –
27 | CC(=O)OCCn1cnc2nc(Nc3ccccc3)nc(Cl)c21 | > 100 | > 100 | – | > 100 | 88.1 | > 100 | > 100 | > 100 | > 100 | > 100 | > 100 | > 100 | – | – | > 100 | > 100 | – | > 100 | > 100
